Where “and” joins values, the source holds several entries; their conditions need not be identical. Identical values can stand only once. Marks after values point to notes of the source that are not given here.
Key:
Assay type in all cases: in vivo, mouse
conscious mice [1] = test: Methacholine aerosol challenge in conscious mice, restrained whole body plethysmography (RWBP); settings: for sRaw-RWBP ED175: mean; for average sRaw: one C57BL/6 mouse
From the text: The dynamic properties of the plethysmograph were studied by varying pressures in the chamber (John, J., B. Drefeldt, et al. (1994). “Dynamic properties of body plethysmographs and effects on physiological parameters.” J Appl Physiol 77(1): 152-9. (hereinafter John, et al.), incorporated herein by reference). A leak (3.2 sec to 36% peak pressure) was created by a Luer connector mounted in the wall of the box, which was attached to a length of tubing, a stopcock and needle (22 g, 2 cm). The leak resistance was measured to be 5.37 cm H2O/L/sec and inertance 0.029 s^2/mL. A step pressure created by (a) hammering gently the plunger of a syringe loaded to an expected volume (0.02 mL), and (b) balloon burst both peaked between 19-21 msec, with a thermal time constant (described by a single compartment) of 0.95 sec. Amplitude was examined as a function of input frequency using digitally controlled square and sinusoidal flows delivered with a piston-driven mouse ventilator (flexiVent, Scireq Corp, Montreal, Canada). Box pressure amplitude remained within 3% of the delivered volume (0.1 mL) from 1-10 Hz, and within 0.075% between 2 and 5 Hz, the range most relevant to breathing in conscious mice. Therefore the conditions were adiabatic across these frequencies. Time shifts between flow, delivered via the pneumotachograph within the box, and peak box pressure averaged less than 3 msec (range 1-6 msec) from 0.5-20 Hz generated using a broadband input generator (flexiVent, Scireq Corp). Pressure in the plethysmographic chamber was sampled differential pressure transducer 20 (TRD 5700, Buxco Electronics, Wilmington, N.C.) referenced to the atmospheric reference chamber 18 The pneumotachograph 52 (8431 Series, Hans Rudolph, Kansas City, Mo.) heated to 38-39° C. measured flow and flow-derived parameters. Data was sampled at 2500 Hz per channel using commercial hardware (Max1420 Buxco Electronics, PCI 6024E, National Instruments) and software (Biosystem XA version 2.9.4, Buxco Electronics, Inc). The pneumotachograph was calibrated by integration of the flow, injected as a known volume (0.5 mL). Box volume was calibrated by rapid injection of a known volume (0.1 mL) into the chamber between each mouse, and checked repeatedly using injections of varying volumes and quasi-sinusoidal inputs. Bias flow (0.5 L/min) was employed between recordings, and the box vented fully between methacholine challenges.
FIGS. 9A-9D are box volume-flow plots for the experiments performed using an RWBP according to the invention. Primary waveforms (box volume, flow) are reviewed and period of peak responses based on EF50 are identified. These occurred regularly between 1.5-2.5 minutes after exposure to methacholine. FIGS. 9A-9D have a stripchart for pneumotachograph flow and plethysmographic volume. Below the stripcharts are corresponding X-Y plots of flow (Y-axis) and box volume shift (X-axis). A slope (θ) of the box volume-flow plot was measured using a protractor (accurate to 0.5 degrees) on the straightest possible segment between −1 to 1 mL/sec. Angles are measured at the transition from expiration to inspiration to minimize the contribution of heating and humidification to the box volume signal (see Agrawal K P). Gains were set to produce angles (tangents) between 40 and 75 degrees. Breaths with evidence of laryngeal braking are avoided. Specific airway resistance (sRaw) is computed from the plots as follows: sRaw=(1/tan θ)*(Patm−PH2O)*Cf*(Vbox−bwt mouse)/Vbox, Equation 1: where Patm is atmospheric pressure, PH2O is water vapor pressure, Cf is a scaling factor for X and Y axes, Vbox is volume of the outer chamber, and bwt mouse is the weight of the mouse in units of grams.
Challenges were conducted at the same time of day (morning or afternoon) for each mouse. Ambient temperatures in the laboratory ranged from 21-23° C. and humidity ranged from 25-45%. Baseline recordings were obtained after 2 min acclimation to the chamber. […]

[2] = tested on: anesthetized, tracheotomized mice; test: Methacholine challenge in anesthetized mice using forced oscillation technique (FOT); settings: for Raw ED175: provocative concentration increasing Raw-FOT to 175% baseline, mean
Protocol: The methods for FOT have been previously described in Tomioka, S., J. H. Bates, et al. (2002). “Airway and tissue mechanics in a murine model of asthma: alveolar capsule vs. forced oscillations.” J Appl Physiol 93(1): 263-70. (hereinafter Tomioka, et al.), incorporated herein by reference. Mice were anesthetized with ketamine (50 mg/kg) and xylazine (5 mg/kg) (Butler Co, Dublin, Ohio) intra-peritoneally, and a tracheostomy performed with a 19 g cannula (Becton Dickinson and Company Franklin Lakes, N.Y.). Mice were paralyzed with pancuronium (1 mg/ml, Baxter Healthcare Corp. Irvine, Calif.). Supplemental xylazine and ketamine (½ doses) were provided every ½ hour. Ventilation was set at frequency of 200 BPM, VT 0.3 ml, positive end-expiratory pressure (PEEP) 3.0 cm H20, and oxygen was supplemented throughout. Repeated measurements were performed with a commercial data acquisition system for input impedance between 1-20 Hz (Quick Prime 3 analyzer, FlexiVent System, SCIREQ Corp, Montreal, Quebec). A constant phase model (Gomes, R. F., X. Shen, et al. (2000). “Comparative respiratory system mechanics in rodents.” J Appl Physiol 89(3): 908-16 (hereinafter Gomes, et al.)., incorporated herein by reference) was employed to obtain airway resistance Raw, tissue resistance coefficient Gti, and tissue elastance coefficient Hti.
Aerosols were delivered directly into the tracheal cannula during lung inflation during mechanical ventilation (flexiVent, Scireq Corp, Montreal, Quebec). Ten second nebulization periods were used, followed immediately by a series (8-15) of measurements. Prior to each measurement of lung mechanics, the lung was inflated to total lung capacity (TLC) (30 cm H2O airway pressure). Forced oscillations during apnea (3 seconds in duration) were applied every 17 seconds for 5 minutes. Dosage ranges were pre-determined in pilot studies to evoke between 10 and >75% increase in airway resistance (Raw). Methacholine in C57 mice was delivered at 0 (saline), 4, 8, and 16 mg/mL, and in AJ we used 0, 2, 4, and 8 mg/mL. The concentration of methacholine that provoked an increase in Raw-FOT to 175% baseline (ED 175) was determined by log-linear interpolation as described above.

conscious mice [3] = test: Methacholine aerosol challenge in conscious mice, double chamber plethysmography (DCP); settings: BALBc (pre-OVA) mice, n=8; provocative concentration increasing sRaw to 175% post-saline value; mean
Protocol: The double chamber plethysmograph was purchased from a commercial source (PLY3351, Buxco Electronics Inc, Wilmington, N.C.). The techniques for measurement with this technique have been described previously (DeLorme, et al. and Flandre, et al.). The flow for each chamber (nasal and thoracic) of the DCP was calibrated separately by rapid injection of a known volume (0.5 mL) into the chamber; volume was matched by the integration of flow. The accuracy of calibration was checked before each test. The phase lag between the chambers was negligible (<0.01 msec up to 10 Hz). For DCP, mice were loaded into the rear of the thoracic chamber and pushed forward until the head protruded through a hole in a latex neck seal provided with the equipment. […] Computation of sRaw measured with DCP (hereinafter sRaw-DCP) followed protocols established by Pennock, et al. and later applied to mice by Flandre, et al, whereby the time lag (dT) between the thoracic and nasal flow at zero crossing (during transition between inspiration and expiration) was utilized as follows: sRaw−DCP=(Ti+Te)/(2π)×(Patm−47)×1.36 2×π×dT/(Ti+Te), Equation 2: where Ti and Te equal inspiratory and expiratory time (sec) and Patm atmospheric pressure (cm H2O). The peak dT was identified and 10 sequential breaths free from movement artifacts were measured for that period. […]

CC(=O)OC(C)C[N+](C)(C)C (centres unmarked) [methacholine]
sRaw-RWBP ED175 (conscious mice [1]; AJ mice, n=18, provocative concentration increasing sRaw to 175% post-saline value): 4.49^a,b mg/mL | sRaw-RWBP ED175 (conscious mice [1]; BALBc (no OVA) mice, n=18, provocative concentration increasing sRaw to 175% post-saline value): 10.9^a mg/mL | sRaw-RWBP ED175 (conscious mice [1]; BALBc (post-OVA) mice, n=8, 48 hrs following allergen challenge in sensitized group): 5.0 mg/mL and 5.0^a,c mg/mL | sRaw-RWBP ED175 (conscious mice [1]; BALBc (pre-OVA) mice, n=8, prior to sensitization and aerosol exposure to ovalbumin): 9.2 mg/mL and 9.2^ mg/mL | sRaw-RWBP ED175 (conscious mice [1]; C57 mice, n=18, provocative concentration increasing sRaw to 175% post-saline value): 40.5^b mg/mL | change in tidal volume (conscious mice [1]; conscious C57, AJ and BALBc mice, any strain (FIG. 10C)): no change | change in sRaw-RWBP (conscious mice [1]; conscious C57, AJ and BALBc mice, dose response (FIG. 10A)): significant dose-dependent increase | change in respiratory frequency (conscious mice [1]; conscious C57, AJ and BALBc mice, dose response (FIG. 10B)): significant decrease | average sRaw (conscious mice [1]; methacholine aerosol dose 10 mg/mL (FIG. 9B)): 0.75 cm·s | average sRaw (conscious mice [1]; methacholine aerosol dose 50 mg/mL (FIG. 9C)): 0.86 cm·s | average sRaw (conscious mice [1]; methacholine aerosol dose 100 mg/mL (FIG. 9D)): 1.61 cm·s | period of peak responses based on EF50 after exposure (conscious mice [1]; time after exposure to methacholine): 1.5 to 2.5 min | Raw ED175 ([2]; AJ mice, n=18): 2.3^a mg/mL | Raw ED175 ([2]; BALBc (pre-OVA) mice): 9.48 mg/mL | Raw ED175 ([2]; C57 mice, n=18): 8.3 mg/mL | change in Raw ([2]; anesthetized, tracheotomized C57, AJ and BALBc mice, all 3 strains (FIG. 11)): dose-dependent increase | sRaw-DCP ED175 (conscious mice [3]): 7.1^a mg/mL

— patent US20060278218A1, “Non-invasive restrained whole body plethysmography for measurement of airway function in conscious mice” (priority 2005, published 2006)
